{"source": "paper PMC11648675", "about": "(Cell, 2024)", "key": {"Human GSDMD [1]": {"target": "T1, Human GSDMD (Homo sapiens, UniProt P57764)", "T1 sequence (P57764 whole entry)": "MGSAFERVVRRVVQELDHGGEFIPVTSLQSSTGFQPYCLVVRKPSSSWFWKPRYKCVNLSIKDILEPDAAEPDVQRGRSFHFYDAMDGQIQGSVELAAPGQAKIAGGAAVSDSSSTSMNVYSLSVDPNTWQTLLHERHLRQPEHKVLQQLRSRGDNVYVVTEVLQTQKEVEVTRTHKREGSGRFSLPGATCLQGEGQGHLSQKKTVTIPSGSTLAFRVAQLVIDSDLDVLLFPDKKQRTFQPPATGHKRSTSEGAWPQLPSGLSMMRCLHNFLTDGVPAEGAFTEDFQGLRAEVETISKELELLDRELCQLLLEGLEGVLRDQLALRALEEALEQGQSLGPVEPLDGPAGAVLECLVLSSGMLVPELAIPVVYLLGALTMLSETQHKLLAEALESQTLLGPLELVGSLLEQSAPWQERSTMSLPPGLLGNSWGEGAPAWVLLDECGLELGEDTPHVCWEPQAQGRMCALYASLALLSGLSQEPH", "assay": "time-resolved fluorogenic", "format": "biochemical", "conditions": "read-out: EC50 of liposome leakage; human GSDMD 0.3 μM, Tb3+/DPA fluorescence"}, "Human GSDMD [2]": {"target": "T1, Human GSDMD", "assay": "microscale thermophoresis", "format": "binding", "conditions": "read-out: dissociation constant (KD) by MST; Alexa 647-labeled GSDMD"}, "THP-1 cells": {"system": "THP-1 cells", "assay": "cell death of WT THP-1 cells by PI uptake", "format": "cell-based, human"}, "[3]": {"system": "GSDMD knockout (KO) THP-1 cells", "assay": "cell death of GSDMD KO THP-1 cells by PI uptake", "format": "cell-based, human", "conditions": "5 or 20 μM"}, "[4]": {"system": "GSDMD KO THP-1 cells reconstituted with WT or D275A GSDMD", "assay": "PI uptake in GSDMD KO THP-1 cells reconstituted with WT or D275A GSDMD", "format": "cell-based, human", "conditions": "5 or 20 μM, 1, 2 and 4 h"}, "NLRP3": {"system": "NLRP3", "assay": "NLRP3 activation in LPS-primed THP-1 cells", "format": "cell-based, human", "conditions": "treatment after LPS priming"}, "[5]": {"system": "human peripheral blood mononuclear cells (PBMCs)", "assay": "cell death of human PBMCs", "format": "cell-based"}, "[6]": {"system": "primary mouse bone-marrow-derived macrophages (BMDMs)", "assay": "cell death of primary mouse BMDMs", "format": "cell-based", "conditions": "WT and GSDMD KO primary BMDMs"}, "[7]": {"system": "immortalized mouse BMDMs (iBMDMs)", "assay": "cell death of immortalized mouse BMDMs", "format": "cell-based", "conditions": "WT iBMDMs, 5 and 20 μM; not affected by caspase-1/11 ablation"}, "recombinant caspase-1": {"target": "recombinant caspase-1 (Homo sapiens, UniProt P29466)", "sequence (P29466 120-297 limits assumed, species assumed)": "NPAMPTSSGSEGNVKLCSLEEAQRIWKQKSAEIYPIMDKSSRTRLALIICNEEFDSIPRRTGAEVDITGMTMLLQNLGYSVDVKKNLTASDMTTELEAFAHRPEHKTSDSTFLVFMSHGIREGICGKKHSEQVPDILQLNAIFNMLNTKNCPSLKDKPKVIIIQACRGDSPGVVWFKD", "sequence (P29466 317-404 limits assumed, species assumed)": "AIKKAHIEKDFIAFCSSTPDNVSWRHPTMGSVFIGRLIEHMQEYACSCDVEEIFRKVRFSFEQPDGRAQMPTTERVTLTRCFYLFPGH", "assay": "Caspase-1 activity assay", "format": "biochemical", "conditions": "in vitro, DMB 10 μM, Z-YVAD-AFC substrate"}, "mouse GSDMD": {"system": "mouse GSDMD", "assay": "liposome leakage assay with mouse GSDMD", "format": "biochemical"}, "[8]": {"system": "human GSDMA, GSDMB, GSDMC, GSDME", "assay": "liposome leakage assay with other human gasdermins", "format": "biochemical", "conditions": "gasdermins 0.3 μM"}, "C38A GSDMD": {"target": "C38A GSDMD (Homo sapiens, UniProt P57764, C38A)", "sequence (P57764 whole entry C38A)": "as the sequence (P57764 whole entry) above, with C38A counted along it", "assay": "liposome leakage assay with C38A GSDMD", "format": "biochemical", "conditions": "read-out: EC50 for activating GSDMD pore formation"}, "C191A GSDMD": {"target": "C191A GSDMD (Homo sapiens, UniProt P57764, C191A)", "sequence (P57764 whole entry C191A)": "as the sequence (P57764 whole entry) above, with C191A counted along it", "assay": "liposome leakage assay with C191A GSDMD", "format": "biochemical"}, "[9]": {"system": "full-length GSDMD in HEK293T cells", "assay": "activation of full-length GSDMD in transfected HEK293T cells", "format": "cell-based, human"}, "[10]": {"target": "mCherry-tagged full-length GSDMD (Homo sapiens, UniProt P57764)", "sequence (P57764 whole entry)": "as the sequence (P57764 whole entry) above", "assay": "membrane localization of mCherry-tagged full-length GSDMD in HEK293T cells", "format": "cell-based", "conditions": "increasing concentrations of DMB"}, "[11]": {"target": "GSDMD (YFP at N terminus, RLuc at C terminus) (Homo sapiens, UniProt P57764)", "sequence (P57764 whole entry)": "as above", "assay": "BRET assay of GSDMD NT-CT distance", "format": "cell-based"}, "EMT6 cells": {"system": "EMT6 cells", "assay": "cell death of EMT6 cells in vitro", "format": "cell-based, mouse", "conditions": "for cell death at concentration used for vaccination: 60 μM; for LDH release: WT EMT6 cells; for potency at killing WT EMT6 cells: cell-titer Glo assay, in vitro"}, "WT EMT6 tumors": {"system": "WT EMT6 tumors", "assay": "orthotopic WT EMT6 tumors in BALB/c mice", "format": "in vivo, mouse"}, "[12]": {"system": "Gsdmd−/− and Gsdmd−/−Gsdme−/− EMT6 tumors", "assay": "orthotopic gasdermin-KO EMT6 tumors in BALB/c mice", "format": "in vivo, mouse", "conditions": "10 mg/kg weekly"}, "CT26 colorectal cancer": {"system": "CT26 colorectal cancer", "assay": "subcutaneous CT26 tumors in syngeneic mice", "format": "in vivo, mouse", "conditions": "10 mg/kg"}, "[13]": {"system": "KP lung adenocarcinoma tumors", "assay": "subcutaneous KP tumors in WT and Gsdmd−/− C57BL/6 mice", "format": "in vivo, mouse"}, "EMT6 tumors in NSG mice": {"system": "EMT6 tumors in NSG mice", "assay": "EMT6 tumors in NSG mice", "format": "in vivo, mouse", "conditions": "NSG mice lacking functional lymphocytes"}, "EMT6 tumor challenge": {"system": "EMT6 tumor challenge", "assay": "vaccination with drug-treated EMT6 cells and EMT6 challenge", "format": "in vivo, mouse", "conditions": "for mice remaining tumor-free after challenge: immunization with drug-treated EMT6 cells, challenge 8 days later"}, "[14]": {"system": "B16 cells that expressed GFP", "assay": "subcutaneous B16-GFP tumors in syngeneic mice", "format": "in vivo, mouse", "conditions": "10 mg/kg every 3 days x6"}, "4T1E tumors": {"system": "4T1E tumors", "assay": "orthotopic 4T1E tumors in BALB/c mice, DMB and anti-PD-1", "format": "in vivo, mouse", "conditions": "DMB 1 mg/kg weekly; anti-PD-1 every 2 days"}, "[15]": {"assay": "toxicity readouts in treated tumor-bearing mice", "format": "in vivo, mouse"}, "[16]": {"system": "Human GSDMD-GFP-expressing B16 cells", "assay": "pyroptosis of B16-GSDMD-GFP cells in vitro by PI uptake", "format": "cell-based, mouse", "conditions": "10 μM DMB"}, "[17]": {"system": "B16 cells expressing human GSDMD-GFP"}, "[18]": {"conditions": "10 mg/kg i.p. every 3 days x6 from day 5"}}, "note": "Where a SMILES comes first, the peptide text is derived from it. The star is where a group is joined. CH2Cl = ClC*"}
{"smiles": "CC(C)(C)Nc1nc2cc(Cl)c(Cl)cc2nc1S(C)(=O)=O", "note": "[DMB, 6,7-dichloro-2-methylsulfonyl-3-N-tert-butylaminoquinoxaline]", "values": [{"measurement": "EC50", "setting": "Human GSDMD [1]", "value": 700, "unit": "nM"}, {"measurement": "Kd", "setting": "Human GSDMD [2]", "value": "1100 ± 400", "unit": "nM"}, {"measurement": "cell death by PI uptake", "setting": "THP-1 cells; WT THP-1 cells, 5 or 20 μM", "value": "induced significant cell death within 2 h"}, {"measurement": "EC50", "setting": "THP-1 cells; read-out: EC50 of DMB-mediated cell death, WT THP-1, PI positivity at 4 h", "value": "4800 ± 400", "unit": "nM"}, {"measurement": "cell death by PI uptake", "setting": "[3]", "value": "minimally"}, {"measurement": "cell death by PI uptake, WT vs D275A GSDMD rescue", "setting": "[4]", "value": "comparable cell death"}, {"measurement": "NLRP3 activation (ASC speck formation, IL-1β release)", "setting": "NLRP3", "value": "did not significantly activate NLRP3"}, {"measurement": "induction of PI positivity, LDH release, ATP release", "setting": "[5]", "value": "robustly induced"}, {"measurement": "GSDMD dependence of cell death induction", "setting": "[6]", "value": "depended on GSDMD"}, {"measurement": "cell death", "setting": "[7]", "value": "triggered cell death"}, {"measurement": "effect on recombinant caspase-1 activity", "setting": "recombinant caspase-1", "value": "neither inhibited nor activated"}, {"measurement": "fold reduced efficacy on mouse GSDMD vs human GSDMD", "setting": "mouse GSDMD", "value": "~ 5 fold"}, {"measurement": "activation of other human gasdermins", "setting": "[8]", "value": "activated human GSDMD but not other human gasdermins"}, {"measurement": "EC50", "setting": "C38A GSDMD", "value": "~900", "unit": "nM"}, {"measurement": "activation of GSDMD pore formation", "setting": "C191A GSDMD", "value": "not activated"}, {"measurement": "activation of C191R and C191F full-length GSDMD mutants", "setting": "[9]", "value": "could not be activated"}, {"measurement": "membrane localization of mCherry-tagged full-length GSDMD", "setting": "[10]", "value": "up to 88%"}, {"measurement": "BRET signal compared with DMSO control", "setting": "[11]", "value": "decreased the BRET signal"}, {"measurement": "ATP release into supernatants", "setting": "EMT6 cells; EMT6 cells", "value": "peaked 2 and 3 h"}, {"measurement": "cell death at concentration used for vaccination", "setting": "EMT6 cells; EMT6 cells, 5 h", "value": "60–70%"}, {"measurement": "LDH release", "setting": "EMT6 cells", "value": "beginning within an hour of treatment"}, {"measurement": "potency at killing WT EMT6 cells", "setting": "EMT6 cells", "value": "similarly potent"}, {"measurement": "tumor growth", "setting": "WT EMT6 tumors; 10 mg/kg weekly for 2 weeks, WT EMT6", "value": "significantly suppressed"}, {"measurement": "GzmB/PFN expression and stimulated IFN-γ/TNF-α production of CD8+ and NK TILs", "setting": "WT EMT6 tumors; 10 mg/kg weekly, WT EMT6 tumors", "value": "significantly increased"}, {"measurement": "tumor growth", "setting": "[12]; Gsdmd−/− EMT6", "value": "not significantly reduced"}, {"measurement": "tumor growth", "setting": "[12]; Gsdmd−/−Gsdme−/− EMT6", "value": "not significantly reduced"}, {"measurement": "tumor growth", "setting": "CT26 colorectal cancer", "value": "A similar reduction in tumor growth"}, {"measurement": "tumor growth", "setting": "[13]", "value": "similarly inhibited"}, {"measurement": "tumor growth", "setting": "EMT6 tumors in NSG mice", "value": "did not suppress the growth"}, {"measurement": "tumor size, times smaller than in mice immunized with MMC-treated cells", "setting": "EMT6 tumor challenge; immunization with DMB-treated EMT6 cells", "value": 6, "unit": "times"}, {"measurement": "mice remaining tumor-free after challenge", "setting": "EMT6 tumor challenge", "value": "Three of 12"}, {"measurement": "tumor growth", "setting": "[14]", "value": "no significant effect"}, {"measurement": "tumor growth / tumor volume vs vehicle", "setting": "4T1E tumors", "value": "does not inhibit tumor growth on its own"}, {"measurement": "mouse body weight", "setting": "[15]; B16 tumor-bearing mice, 10 mg/kg every 3 days x6", "value": "no effect"}, {"measurement": "blood counts", "setting": "[15]; EMT6-bearing mice, 10 mg/kg", "value": "normal blood counts"}, {"measurement": "sensitivity to DMB-induced pyroptosis by PI uptake", "setting": "[16]", "value": "became sensitive to DMB-induced pyroptosis"}, {"measurement": "surviving mice cured with no palpable tumor", "setting": "[17]; [18]", "value": 3}, {"measurement": "tumor growth", "setting": "[17]; [18]", "value": "strongly inhibited tumor growth"}, {"measurement": "mice surviving to the end of the experiment", "setting": "[17]; 10 mg/kg i.p. every 3 days x6 from day 5, clones 9 and 10", "value": "5 of 16"}, {"measurement": "T cells per tumor area, DMB vs. vehicle", "setting": "[17]; CD3+ CD8+ immunofluorescence", "value": 8.3, "unit": "fold"}, {"measurement": "DCs per tumor area, DMB vs. vehicle", "setting": "[17]; MHCII+ CD11c+ immunofluorescence", "value": 25.2, "unit": "fold"}, {"measurement": "survival of mice bearing smaller tumors, delayed treatment", "setting": "[17]; treatment from day 10, every 3 days x6", "value": "two of the four"}]}
{"smiles": "CO[C@@]12[C@H](COC(N)=O)C3=C(C(=O)C(C)=C(N)C3=O)N1C[C@@H]1N[C@@H]12", "note": "[MMC, mitomycin C]", "values": [{"measurement": "ATP release into supernatants", "setting": "EMT6 cells; EMT6 cells", "value": "did not trigger ATP release"}, {"measurement": "cell death at concentration used for vaccination", "setting": "EMT6 cells; EMT6 cells, 20 h", "value": "60–70%"}, {"measurement": "LDH release", "setting": "EMT6 cells", "value": "much less and delayed LDH release"}, {"measurement": "potency at killing WT EMT6 cells", "setting": "EMT6 cells", "value": "similarly potent"}, {"measurement": "mice remaining tumor-free after challenge", "setting": "EMT6 tumor challenge", "value": "tumors grew in all the mice"}]}
{"smiles": "CCN(CC)C(=S)SSC(=S)N(CC)CC", "note": "[disulfiram, reference compound]", "values": [{"measurement": "effect of pretreatment on DMB-induced cell death", "setting": "[5]; pretreatment before DMB", "value": "strongly suppressed cell death"}]}
{"smiles": "CC(=O)N[C@@H](Cc1ccccc1)C(=O)N[C@@H](CC(C)C)C(=O)N[C@H](C(=O)N[C@@H](CC(=O)O)C(=O)CCl)[C@@H](C)O", "note": "[AC-FLTD-CMK] (Ac-FLTD-CH2Cl)", "values": [{"measurement": "effect of caspase inhibition on DMB-induced SYTOX Green uptake", "setting": "EMT6 cells; EMT6 cells", "value": "did not affect DMB-induced pyroptosis"}]}
